Test results taken from patent US20070099917A1, “Novel inhibitors and methods for their preparation” (THE WALTER AND ELIZA HALL INSTITUTE OF MEDICAL RESEARCH, priority 2005, published 2007).

Assay: Hydrolysis of FMS derivative in mouse plasma
Format: in vitro ADME
Conditions: 100 μM in mouse plasma at 37° C., after 28 hours, RP-HPLC
Description: Mouse plasma was incubated with 100 μM FMS-6-amino-4-(3-chlorophenylamino)quinazoline at 37° C. Samples were taken and analysed on RP-HPLC as described above in Example 1b) ii). The relative amounts of the two peaks were calculated. Chromatograms of samples taken at 0 (see FIG. 5), 5 (see FIG. 6) and 22 (see FIG. 7) hours show the relative change in the amount of the two compounds (i.e. FMS-6-amino-4-(3-chlorophenylamino)quinazoline vs 6-amino-4-(3-chlorophenylamino)quinazoline) in the plasma after incubation at 37° C.

For O=C(Nc1ccc2ncnc(Nc3cccc(Cl)c3)c2c1)OCC1c2ccccc2-c2ccc(S(=O)(=O)O)cc21 (stereo not shown) [FMS-6-amino-4-(3-chlorophenylamino)quinazoline], the “Hydrolysis to 6-amino-4-(3-chlorophenylamino)quinazoline in mouse plasma” value was “almost completely hydrolysed”.
